Data as given in patent publication US20040133936A1, “Enzyme” (priority 2000, published 2004).

How the values were obtained:
[1] = molecular target: T1, myrosinase from the cabbage aphid (Brevicoryne brassicae) (Brevicoryne brassicae, UniProt Q95X01); assay: Kinetic studies of aphid myrosinase (glucose released by glucosinolate hydrolysis); type: biochemical; settings: for Km: substrate, read-out: apparent Km of the aphid myrosinase
T1 construct: The myrosinase from freeze-dried aphids was purified in five steps; from tissue; host or cells: whole freeze-dried Brevicoryne brassicae aphids
T1 sequence (Q95X01 1-464): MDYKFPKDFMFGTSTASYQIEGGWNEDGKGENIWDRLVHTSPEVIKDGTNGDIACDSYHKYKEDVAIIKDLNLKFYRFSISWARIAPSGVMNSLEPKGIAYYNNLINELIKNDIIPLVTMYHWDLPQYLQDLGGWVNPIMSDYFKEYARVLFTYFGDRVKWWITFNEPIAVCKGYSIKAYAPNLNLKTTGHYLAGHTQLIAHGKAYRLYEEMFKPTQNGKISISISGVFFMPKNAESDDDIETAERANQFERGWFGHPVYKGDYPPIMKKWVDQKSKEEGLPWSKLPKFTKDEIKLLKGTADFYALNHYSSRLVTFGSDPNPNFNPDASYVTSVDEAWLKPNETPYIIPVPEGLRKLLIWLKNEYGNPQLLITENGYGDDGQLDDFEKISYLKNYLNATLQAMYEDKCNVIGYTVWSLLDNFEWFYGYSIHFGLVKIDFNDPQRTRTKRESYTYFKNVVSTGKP
Protocol: (§1) An assay based on the determination of glucose released by the hydrolysis of 2-propenyl glucosinolate (sinigrin) by the aphid myrosinase was used routinely to determine enzyme activity during protein purification. GOD-Perid test reagents were purchased from Boehringer Mannheim.
(§2) Enzyme solution and sinigrin (1.08 mM) in 500 μl of sodium citrate buffer (100 mM, pH 5.5) was incubated at 30° C. for 20 min. The reaction was stopped by addition of 40 μl 3M HCl (aq) and GOD-PERID reagent (2.5 ml) added to the reaction mixture and incubated for 15 min at 37° C. The optical density was read at 346 nm and the glucose concentration calculated from a calibration graph.
The present inventors have performed a number of kinetic studies on the myrosinase from the cabbage aphid (Brevicoryne brassicae) which they have characterised. […] Like the cabbage aphid, the turnip aphid (Lipaphis erysimi) myrosinase was not activated by ascorbate in the concentration range 0.1-20 mM. The KM for sinigrin is 0.42 mM for the white mustard (Sinapis alba) myrosinase.

[2] = test system: turnip aphid (Lipaphis erysimi) myrosinase; assay: Ascorbate activation of turnip aphid myrosinase; type: biochemical; settings: concentration range 0.1-20 mM
[3] = test system: plant myrosinase; settings: cited from earlier work
[4] = molecular target: T2, myrosinase from the cabbage aphid B. brassicae (Brevicoryne brassicae, UniProt Q95X01); settings: substrates 2-propenyl and 2-hydroxy-3-butenyl glucosinolate; cited from earlier work
T2 sequence (Q95X01 1-464): T1 sequence (Q95X01 1-464)

[5] = test system: myrosinase from the mustard plant Brassica nigra; settings: substrates 2-propenyl and 2-hydroxy-3-butenyl glucosinolate; cited from earlier work
[6] = molecular target: white mustard (Sinapis alba) myrosinase (Sinapis alba, UniProt P29736); assay: KM of white mustard myrosinase; type: biochemical; settings: substrate
Chain of white mustard (Sinapis alba) myrosinase (P29736 whole entry): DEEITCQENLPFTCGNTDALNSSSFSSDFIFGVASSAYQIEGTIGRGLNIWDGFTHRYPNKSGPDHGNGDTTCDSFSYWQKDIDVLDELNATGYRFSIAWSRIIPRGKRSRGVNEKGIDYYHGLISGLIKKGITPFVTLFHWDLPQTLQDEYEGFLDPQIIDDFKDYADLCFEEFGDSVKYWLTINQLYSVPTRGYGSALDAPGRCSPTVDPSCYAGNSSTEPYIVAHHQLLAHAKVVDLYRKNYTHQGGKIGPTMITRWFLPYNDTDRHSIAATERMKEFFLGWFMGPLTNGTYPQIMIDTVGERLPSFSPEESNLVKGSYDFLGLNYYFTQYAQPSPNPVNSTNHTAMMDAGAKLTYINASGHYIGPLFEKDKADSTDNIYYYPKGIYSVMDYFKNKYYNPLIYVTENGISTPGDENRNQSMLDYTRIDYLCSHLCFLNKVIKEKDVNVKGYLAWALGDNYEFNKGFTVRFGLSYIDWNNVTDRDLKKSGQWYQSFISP

[7] = molecular target: T3, native enzyme (myrosinase) from white mustard seed (Sinapis alba) (Sinapis alba, UniProt P29736); settings: stable glycosyl-enzyme intermediate at the active site; cited from earlier work
T3 construct: the native enzyme from white mustard seed (Sinapis alba) has been crystallised; host or cells: white mustard seed
T3 sequence (P29736 whole entry): as above

[8] = Myrosinase micro assay (glucose released by hydrolysis of sinigrin); type: biochemical; settings: sinigrin 1.08 mM, pH 5.5, 30° C.
Protocol: as §1
as §2, with “ml) was” for “ml)”

Question: What does the source list for `O=C1O[C@H]([C@@H](O)CO)C(O)=C1O` [ascorbate, ascorbic acid]?
Answer: activation by ascorbate ([1]; concentration range 0.1-20 mM): not activated; activation by ascorbate [2]: not activated; inhibition of plant myrosinases ([3]; high concentrations): inhibited; activation of plant myrosinases ([3]; low concentrations): activated

Question: Which results are given for `OC[C@H]1NC[C@H](O)[C@@H](O)[C@@H]1O` [DNJ, 1-deoxynojirimycin]?
Answer: inhibition of aphid myrosinase [4]: inhibited; inhibition of plant myrosinase [5]: not significantly

Question: Which “inhibition of aphid myrosinase” value [4] does the source give for `OC[C@@H]1[C@@H](O)[C@H](O)[C@@H]2[C@@H](O)CCN21` [Alexine] here?
Answer: Its value is “inhibited”.

Question: What about the “inhibition of plant myrosinase” value [5] of the same molecule?
Answer: The value was “not significantly”.

Question: For `OC[C@H]1N[C@H](CO)[C@@H](O)[C@@H]1O` [DMDP, (2R, 5R)-dihydroxymethyl-(3R,4R)-dihydroxypyrrolidine], which “inhibition of aphid myrosinase” value [4] is on record?
Answer: The value was “effectively inhibited”.

Question: And the “inhibition of plant myrosinase” value [5]?
Answer: The value was “effectively inhibited”.

Question: Which Km [1] does the source give for `O=S(=O)(O)O/N=C(\Cc1ccccc1)S[C@@H]1O[C@H](CO)[C@@H](O)[C@H](O)[C@H]1O` [benzyl glucosinolate] here?
Answer: Its Km is 915 µM.

Question: Which Km [1] does the source give for `C=CC/C(=N/OS(=O)(=O)O)S[C@@H]1O[C@H](CO)[C@@H](O)[C@H](O)[C@H]1O` [2-propenylglucosinolate] here?
Answer: Its Km is 613 µM.

Question: And the Km [6]?
Answer: Its Km is 420 µM.

Question: Which “inhibition of aphid myrosinase” value [4] does the source give for `OC[C@H]1NC[C@@H](O)[C@@H]1O` [AB1, 1,4-dideoxy-1,4-imino-D-arabinitol] here?
Answer: The value was “inhibited”.

Question: What about the “inhibition of plant myrosinase” value [5] of the same molecule?
Answer: Its value is “not significantly”.

Question: Which Ki [1] does the source give for `O=S(=O)(O)ON=C(Cc1ccccc1)S[C@@H]1O[C@H](CO)[C@@H](O)[C@H](O)[C@H]1F` [2-deoxy-2-fluoroglucotropaeolin] here?
Answer: Its Ki is “extremely low”.

Question: And the type of inhibition [1]?
Answer: The type of inhibition was “competitively inhibited”.

Question: And the “inhibition of the enzyme” value [7]?
Answer: Its value is “potent inhibitor”.

Question: With `O[C@H]1[C@H](O)[C@@H](O)CN2CC[C@H](O)[C@H]12` [castanospermine] as the molecule, how does the “inhibition of aphid myrosinase” value [4] read?
Answer: Its value is “effectively inhibited”.

Question: And the “inhibition of plant myrosinase” value [5]?
Answer: The value was “effectively inhibited”.

Question: For `O=C1O[C@H](CO)[C@@H](O)[C@H](O)[C@H]1O` [D-glucono-β-lactone], which “inhibition of plant myrosinase” value [3] is on record?
Answer: The value was “poor inhibitors”.

B1: Pure aphid myrosinase: myrosinase enzyme purified to homogeneity from Brevicoryne brassicae (SEQ ID NO. 1) (protein, listed as Brevicoryne brassicae)
chain: T1 sequence (Q95X01 1-464)
Question: Which Specific activity [8] does the source give for B1 here?
Answer: Its Specific activity is 20.000 µmol/mg/min.
